Measurements from ChEMBL document CHEMBL1201862, “PubChem BioAssay data set” (2004).
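Five compound concentrations were applied to cells in 96-well plates for 48 hours; endpoints were derived by simple linear interpolation of the resulting dose-response curve. Here, GI50 denotes the concentration required for 50% inhibition of growth.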 Calls of active or inactive are those of the source. Cut-off read from the data, not from the text of the source: active = GI50 up to about 1.1 µM and inactive = higher.

Legend:
Experiment in all cases: DTP human tumour cell line panel, 48 h
EKVX = system: EKVX
KM12 = system: KM12
HCC 2998 = system: HCC 2998
PC-3 = system: PC-3
RXF 393 = system: RXF 393
MDA-MB-435 = system: MDA-MB-435
SF-295 = system: SF-295
OVCAR-4 = system: OVCAR-4
HOP-62 = system: HOP-62
SW-620 = system: SW-620
A498 = system: A498
Malme-3M = system: Malme-3M
SK-MEL-2 = system: SK-MEL-2
UACC-62 = system: UACC-62
HT-29 = system: HT-29
NCI/ADR-RES = system: NCI/ADR-RES
SK-OV-3 = system: SK-OV-3
OVCAR-8 = system: OVCAR-8
UACC-257 = system: UACC-257
UO-31 = system: UO-31

| Compound | GI50 (EKVX) | GI50 (KM12) | GI50 (HCC 2998) | GI50 (PC-3) | GI50 (RXF 393) | GI50 (MDA-MB-435) | GI50 (SF-295) | GI50 (OVCAR-4) | GI50 (HOP-62) | GI50 (SW-620) | GI50 (A498) | GI50 (Malme-3M) | GI50 (SK-MEL-2) | GI50 (UACC-62) | GI50 (HT-29) | GI50 (NCI/ADR-RES) | GI50 (SK-OV-3) | GI50 (OVCAR-8) | GI50 (UACC-257) | GI50 (UO-31) |
| --- | --- | --- | --- | --- | --- | --- | --- | --- | --- | --- | --- | --- | --- | --- | --- | --- | --- | --- | --- | --- |
| O=c1cc(N2CCCC2)[nH]c(=O)n1-c1ccc(Cl)cc1 | > 100 µM (inactive) | > 100 µM (inactive) | > 100 µM (inactive) | > 100 µM (inactive) | > 100 µM (inactive) | > 100 µM (inactive) | > 100 µM (inactive) | > 100 µM (inactive) | > 100 µM (inactive) | > 100 µM (inactive) | > 100 µM (inactive) | > 100 µM (inactive) | > 100 µM (inactive) | > 100 µM (inactive) | > 100 µM (inactive) | > 100 µM (inactive) | > 100 µM (inactive) | > 100 µM (inactive) | > 100 µM (inactive) | – |
| C=C1C(=O)[C@@]23CC[C@@H]4[C@@]5(C)CCC[C@@]4(OC5=O)[C@@]2(C)CC[C@@H]1C3 | 3.15 µM (inactive) | 2.59 µM (inactive) | 2.19 µM (inactive) | 1.76 µM (inactive) | 1.01 µM (active) | 1.83 µM (inactive) | 5.06 µM (inactive) | 2.38 µM (inactive) | 2.84 µM (inactive) | 0.667 µM (active) | 3.24 µM (inactive) | 1.6 µM (inactive) | 2.13 µM (inactive) | 1.48 µM (inactive) | 0.802 µM (active) | 3.08 µM (inactive) | 9.23 µM (inactive) | 2.3 µM (inactive) | 1.49 µM (inactive) | 1.9 µM (inactive) |
| CCN1CC2=C(N=c3s/c(=C\c4ccc(Cl)cc4)c(=O)n3C2c2ccc(Cl)cc2)/C(=C/c2ccc(Cl)cc2)C1 (configuration not stated) | > 100 µM (inactive) | > 100 µM (inactive) | > 100 µM (inactive) | > 100 µM (inactive) | 2.47 µM (inactive) | > 100 µM (inactive) | 33 µM (inactive) | > 100 µM (inactive) | 14.7 µM (inactive) | > 100 µM (inactive) | 24.6 µM (inactive) | > 100 µM (inactive) | 26.6 µM (inactive) | 32.2 µM (inactive) | > 100 µM (inactive) | > 100 µM (inactive) | 16.8 µM (inactive) | > 100 µM (inactive) | > 100 µM (inactive) | > 100 µM (inactive) |
| O=c1ccc(=O)c2c1c1[nH]c3ccccc3c1c1c(=O)c3ccccc3c(=O)c21 | > 10 µM (inactive) | > 10 µM (inactive) | > 10 µM (inactive) | > 10 µM (inactive) | > 10 µM (inactive) | > 10 µM (inactive) | > 10 µM (inactive) | > 10 µM (inactive) | > 10 µM (inactive) | 8.22 µM (inactive) | > 10 µM (inactive) | > 10 µM (inactive) | > 10 µM (inactive) | > 10 µM (inactive) | > 10 µM (inactive) | > 10 µM (inactive) | > 10 µM (inactive) | > 10 µM (inactive) | > 10 µM (inactive) | 5.66 µM (inactive) |
| c1ccc(COC[C@H]2C3OCC([C@H](OCc4ccccc4)[C@H]3OCc3ccccc3)N2Cc2ccccc2)cc1 (some centres not stated) | > 46.7 µM (inactive) | 25.3 µM (inactive) | > 53 µM (inactive) | 20.2 µM (inactive) | > 100 µM (inactive) | > 55.2 µM (inactive) | > 51.2 µM (inactive) | 40 µM (inactive) | > 55.2 µM (inactive) | > 57 µM (inactive) | 33.7 µM (inactive) | 27.9 µM (inactive) | > 49.2 µM (inactive) | 29.7 µM (inactive) | 46.6 µM (inactive) | > 47.8 µM (inactive) | > 56.4 µM (inactive) | > 50 µM (inactive) | 49 µM (inactive) | > 46.1 µM (inactive) |
| O=C(O)C1C2CCC(O2)C1C(=O)Nc1cccc2cccnc12 (configuration not stated) | > 100 µM (inactive) | > 100 µM (inactive) | 31.1 µM (inactive) | > 100 µM (inactive) | > 100 µM (inactive) | > 100 µM (inactive) | > 100 µM (inactive) | > 100 µM (inactive) | > 100 µM (inactive) | > 100 µM (inactive) | > 100 µM (inactive) | > 100 µM (inactive) | > 100 µM (inactive) | > 100 µM (inactive) | > 100 µM (inactive) | > 100 µM (inactive) | > 100 µM (inactive) | – | > 100 µM (inactive) | > 100 µM (inactive) |
| COc1ccccc1OC(=O)/C=C/c1ccccc1 | > 100 µM (inactive) | > 100 µM (inactive) | > 100 µM (inactive) | > 100 µM (inactive) | > 100 µM (inactive) | > 100 µM (inactive) | 40.2 µM (inactive) | > 100 µM (inactive) | 52.1 µM (inactive) | > 100 µM (inactive) | > 100 µM (inactive) | > 100 µM (inactive) | > 100 µM (inactive) | > 100 µM (inactive) | > 100 µM (inactive) | > 100 µM (inactive) | > 100 µM (inactive) | > 100 µM (inactive) | 35.8 µM (inactive) | > 100 µM (inactive) |
| O=C(/C=C/c1ccccc1)CCN1CCCCC1 | > 100 µM (inactive) | 28.5 µM (inactive) | > 100 µM (inactive) | 52.7 µM (inactive) | 24.2 µM (inactive) | 28.2 µM (inactive) | 99.5 µM (inactive) | 53 µM (inactive) | > 100 µM (inactive) | 18.8 µM (inactive) | 39.2 µM (inactive) | > 100 µM (inactive) | > 100 µM (inactive) | 55.2 µM (inactive) | 19.7 µM (inactive) | 38.8 µM (inactive) | 75 µM (inactive) | 18.5 µM (inactive) | 37.4 µM (inactive) | 34.9 µM (inactive) |
| NNC(=O)CCC(NS(=O)(=O)c1ccc(Cl)cc1)C(=O)NN (configuration not stated) | > 100 µM (inactive) | > 100 µM (inactive) | > 100 µM (inactive) | > 100 µM (inactive) | > 100 µM (inactive) | > 100 µM (inactive) | > 100 µM (inactive) | > 100 µM (inactive) | > 100 µM (inactive) | > 100 µM (inactive) | > 100 µM (inactive) | > 100 µM (inactive) | > 100 µM (inactive) | > 100 µM (inactive) | > 100 µM (inactive) | > 100 µM (inactive) | > 100 µM (inactive) | > 100 µM (inactive) | > 100 µM (inactive) | > 100 µM (inactive) |
| N/N=C1\CCCc2c1no[n+]2[O-] | > 100 µM (inactive) | > 100 µM (inactive) | > 100 µM (inactive) | > 100 µM (inactive) | > 100 µM (inactive) | > 100 µM (inactive) | > 100 µM (inactive) | > 100 µM (inactive) | > 100 µM (inactive) | > 100 µM (inactive) | > 100 µM (inactive) | > 100 µM (inactive) | > 100 µM (inactive) | > 100 µM (inactive) | > 100 µM (inactive) | > 100 µM (inactive) | > 100 µM (inactive) | > 100 µM (inactive) | > 100 µM (inactive) | > 100 µM (inactive) |
| COc1ccc(/N=N/C(=N/NC(=O)c2ccccc2)c2ccc(N(CCC#N)CCC#N)cc2C)cc1 | 97.9 µM (inactive) | 11.6 µM (inactive) | 12.4 µM (inactive) | 19.1 µM (inactive) | 34.8 µM (inactive) | 5.43 µM (inactive) | 21.5 µM (inactive) | > 100 µM (inactive) | 51.6 µM (inactive) | – | 25.6 µM (inactive) | 48 µM (inactive) | 88.5 µM (inactive) | 38.5 µM (inactive) | 17.9 µM (inactive) | > 100 µM (inactive) | 75.3 µM (inactive) | 51.8 µM (inactive) | 78.7 µM (inactive) | 52 µM (inactive) |
| COc1c(Cl)cc(NC(=S)C#N)cc1Cl | 22.2 µM (inactive) | 30.4 µM (inactive) | 15.9 µM (inactive) | 24.3 µM (inactive) | 27.3 µM (inactive) | 25 µM (inactive) | 29.5 µM (inactive) | 29.2 µM (inactive) | 24.5 µM (inactive) | 31.3 µM (inactive) | 19.1 µM (inactive) | 20.6 µM (inactive) | 23.4 µM (inactive) | 15.1 µM (inactive) | 22.8 µM (inactive) | 22.1 µM (inactive) | 29.7 µM (inactive) | 28.4 µM (inactive) | 19.9 µM (inactive) | 22.3 µM (inactive) |
| Cc1ccccc1C(O)(c1nccn1C)c1nccn1C | > 100 µM (inactive) | > 100 µM (inactive) | > 100 µM (inactive) | > 100 µM (inactive) | > 100 µM (inactive) | > 100 µM (inactive) | > 100 µM (inactive) | > 100 µM (inactive) | > 100 µM (inactive) | > 100 µM (inactive) | > 100 µM (inactive) | > 100 µM (inactive) | > 100 µM (inactive) | > 100 µM (inactive) | > 100 µM (inactive) | > 100 µM (inactive) | > 100 µM (inactive) | > 100 µM (inactive) | > 100 µM (inactive) | > 100 µM (inactive) |
| CC(C)=CCOc1cc(NC(=S)c2ccsc2C)ccc1Cl | 56.8 µM (inactive) | > 100 µM (inactive) | 3.49 µM (inactive) | 17.8 µM (inactive) | 27.9 µM (inactive) | > 100 µM (inactive) | 36 µM (inactive) | 16.7 µM (inactive) | 21.4 µM (inactive) | > 100 µM (inactive) | 27.3 µM (inactive) | 49 µM (inactive) | 27.4 µM (inactive) | 15.6 µM (inactive) | > 100 µM (inactive) | 80.4 µM (inactive) | 24.5 µM (inactive) | 44.4 µM (inactive) | 88.1 µM (inactive) | 5.85 µM (inactive) |
